This note sets out measurements from patent publication US20260250318A1, “COMPOSITIONS AND METHODS FOR CROSSING THE BLOOD BRAIN BARRIER” (VOYAGER THERAPEUTICS, INC., priority 2022, published 2026).

The subject of the first assay is brain. The assay is described as follows: Matured TTM-001 and TTM-002 variants, NGS enrichment in mouse brain. The assay is classed as in vivo, mice. To be noted: NGS fold-enrichment, mouse brain, relative to AAV9 control.
As for KTVNGHDSPHKSGQTRQT, the “Fold Enrichment relative to AAV9, Brain (Mouse)” value was determined as 7.174 fold.

With KTINGHDSPHKSGQLVIT, the “Fold Enrichment relative to AAV9, Brain (Mouse)” value was 11.323 fold.

Still in this assay, the particulars now being: mouse brain; relative to AAV9 control.
KTINGSGSPHSKSQSQLT: the “Fold Enrichment relative to AAV9, Brain (Mouse)” value is 125.577 fold.

Turning to KTINGSGSPHSKAQFMCT, the “Fold Enrichment relative to AAV9, Brain (Mouse)” value is given as 81.959 fold.

As for KTINGSGSPHSKAQNNDQ, the “Fold Enrichment relative to AAV9, Brain (Mouse)” value was found to be 59.664 fold.

For KTFNGGGSPHSKAQYQQT, the “Fold Enrichment relative to AAV9, Brain (Mouse)” value was 72.618 fold.

As for KTIIKNGSPHSKAQNQQT, the “Fold Enrichment relative to AAV9, Brain (Mouse)” value was found to be 75.547 fold.

For the sequence KTDRSSGSPHSKAQNQQT, the “Fold Enrichment relative to AAV9, Brain (Mouse)” value is on record as 123.421 fold.

Another assay has as its system brains, heart, liver, muscle, and DRG of the NHPs. In words: Maturation of TTM-001 and TTM-002 capsids, NGS enrichment in NHP tissues. The assay is classed as in vivo. The settings on record: NGS fold-enrichment of RNA, NHP brain, relative to AAV9 control. The essentials:
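Variants carry mutations within and flanking the loop IV peptide insert: positions 450–466 were triplet-randomized, while positions 449–466 received low-frequency point mutations. The combined pool went into two NHPs, and each peptide was scored by NGS enrichment ratio against AAV9.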
As for KTVNGHDSPHKSGQTRQT, the “Fold Enrichment relative to AAV9, Brain (NHP)” value stood at 133.276 fold.

Turning to KTINGHDSPHKSGQLVIT, the “Fold Enrichment relative to AAV9, Brain (NHP)” value was 76.781 fold.

Still in this assay, the particulars now being: NGS fold-enrichment of matured AAV capsid variants; NHP brain, RNA; relative to AAV9 control.
As to KTINGSGSPHSKSQSQLT, the “Fold Enrichment relative to AAV9, Brain (NHP)” value was 55.430 fold.

As to KTINGSGSPHSKAQFMCT, the “Fold Enrichment relative to AAV9, Brain (NHP)” value is given as 55.916 fold.

As to KTINGSGSPHSKAQNNDQ, the “Fold Enrichment relative to AAV9, Brain (NHP)” value amounted to 53.226 fold.

Turning to KTFNGGGSPHSKAQYQQT, the “Fold Enrichment relative to AAV9, Brain (NHP)” value was determined as 58.609 fold.

As to KTIIKNGSPHSKAQNQQT, the “Fold Enrichment relative to AAV9, Brain (NHP)” value was 50.587 fold.

Turning to KTDRSSGSPHSKAQNQQT, the “Fold Enrichment relative to AAV9, Brain (NHP)” value amounted to 52.737 fold.

Still in this assay, the particulars now being: NGS fold-enrichment, NHP DRG, relative to AAV9 control.
For the sequence KTVNGHDSPHKSGQTRQT, the “Fold Enrichment relative to AAV9, DRG (NHP)” value is on record as 0.251 fold.

KTINGHDSPHKSGQLVIT: the “Fold Enrichment relative to AAV9, DRG (NHP)” value was 0.089 fold.

The same assay, now with this note: NGS fold-enrichment, NHP heart, relative to AAV9 control.
On to KTVNGHDSPHKSGQTRQT, for which the “Fold Enrichment relative to AAV9, Heart (NHP)” value is 0.080 fold.

On to KTINGHDSPHKSGQLVIT, for which the “Fold Enrichment relative to AAV9, Heart (NHP)” value turned out to be 0.064 fold.

The assay is the same for the next values; noted with them: NGS fold-enrichment, NHP liver DNA, relative to AAV9 control.
In the case of KTVNGHDSPHKSGQTRQT, the “Fold Enrichment relative to AAV9, Liver DNA (NHP)” value was 0.129 fold.

KTINGHDSPHKSGQLVIT: the “Fold Enrichment relative to AAV9, Liver DNA (NHP)” value is recorded as 0.475 fold.

The assay is the same for the next values; noted with them: NGS fold-enrichment, NHP liver RNA, relative to AAV9 control.
KTVNGHDSPHKSGQTRQT: the “Fold Enrichment relative to AAV9, Liver RNA (NHP)” value came out at 0.034 fold.

For the sequence KTINGHDSPHKSGQLVIT, the “Fold Enrichment relative to AAV9, Liver RNA (NHP)” value came out at 0.338 fold.

Still in this assay, the particulars now being: NGS fold-enrichment, NHP muscle, relative to AAV9 control.
Take KTVNGHDSPHKSGQTRQT: the “Fold Enrichment relative to AAV9, Muscle (NHP)” value worked out at 0.093 fold.

Consider KTINGHDSPHKSGQLVIT, for which the “Fold Enrichment relative to AAV9, Muscle (NHP)” value came to 0.000 fold.

The assay is the same for the next values; noted with them: NHP DRG; relative to AAV9 control.
With KTINGSGSPHSKSQSQLT, the “Fold Enrichment relative to AAV9, DRG (NHP)” value is 0.000 fold.

As to KTINGSGSPHSKAQFMCT, the “Fold Enrichment relative to AAV9, DRG (NHP)” value turned out to be 0.000 fold.

Consider KTINGSGSPHSKAQNNDQ, for which the “Fold Enrichment relative to AAV9, DRG (NHP)” value came to 0.000 fold.

As to KTFNGGGSPHSKAQYQQT, the “Fold Enrichment relative to AAV9, DRG (NHP)” value was determined as 0.000 fold.

As to KTIIKNGSPHSKAQNQQT, the “Fold Enrichment relative to AAV9, DRG (NHP)” value worked out at 0.000 fold.

Take KTDRSSGSPHSKAQNQQT: the “Fold Enrichment relative to AAV9, DRG (NHP)” value is given as 0.000 fold.

The same assay, now with this note: NHP heart; relative to AAV9 control.
As to KTINGSGSPHSKSQSQLT, the “Fold Enrichment relative to AAV9, Heart (NHP)” value came to 0.035 fold.

Regarding KTINGSGSPHSKAQFMCT, the “Fold Enrichment relative to AAV9, Heart (NHP)” value is reported as 0.000 fold.

For KTINGSGSPHSKAQNNDQ, the “Fold Enrichment relative to AAV9, Heart (NHP)” value stood at 0.000 fold.

Take KTFNGGGSPHSKAQYQQT: the “Fold Enrichment relative to AAV9, Heart (NHP)” value is given as 0.000 fold.

For the sequence KTIIKNGSPHSKAQNQQT, the “Fold Enrichment relative to AAV9, Heart (NHP)” value was 0.000 fold.

For KTDRSSGSPHSKAQNQQT, the “Fold Enrichment relative to AAV9, Heart (NHP)” value is 0.000 fold.

Still in this assay, the particulars now being: NHP liver, DNA; relative to AAV9 control.
As to KTINGSGSPHSKSQSQLT, the “Fold Enrichment relative to AAV9, Liver DNA (NHP)” value was found to be 0.013 fold.

For KTINGSGSPHSKAQFMCT, the “Fold Enrichment relative to AAV9, Liver DNA (NHP)” value is reported as 0.448 fold.

Consider KTINGSGSPHSKAQNNDQ, for which the “Fold Enrichment relative to AAV9, Liver DNA (NHP)” value amounted to 0.046 fold.

Turning to KTFNGGGSPHSKAQYQQT, the “Fold Enrichment relative to AAV9, Liver DNA (NHP)” value turned out to be 0.045 fold.

Regarding KTIIKNGSPHSKAQNQQT, the “Fold Enrichment relative to AAV9, Liver DNA (NHP)” value amounted to 0.751 fold.

As for KTDRSSGSPHSKAQNQQT, the “Fold Enrichment relative to AAV9, Liver DNA (NHP)” value is 0.085 fold.

Still in this assay, the particulars now being: NHP liver, RNA; relative to AAV9 control.
With KTINGSGSPHSKSQSQLT, the “Fold Enrichment relative to AAV9, Liver RNA (NHP)” value came out at 0.050 fold.

Regarding KTINGSGSPHSKAQFMCT, the “Fold Enrichment relative to AAV9, Liver RNA (NHP)” value was 0.078 fold.

For the sequence KTINGSGSPHSKAQNNDQ, the “Fold Enrichment relative to AAV9, Liver RNA (NHP)” value was found to be 0.593 fold.

Regarding KTFNGGGSPHSKAQYQQT, the “Fold Enrichment relative to AAV9, Liver RNA (NHP)” value worked out at 0.163 fold.

KTIIKNGSPHSKAQNQQT: the “Fold Enrichment relative to AAV9, Liver RNA (NHP)” value is listed as 0.000 fold.

Turning to KTDRSSGSPHSKAQNQQT, the “Fold Enrichment relative to AAV9, Liver RNA (NHP)” value came to 0.995 fold.

The assay is the same for the next values; noted with them: NHP muscle; relative to AAV9 control.
Take KTINGSGSPHSKSQSQLT: the “Fold Enrichment relative to AAV9, Muscle (NHP)” value was 0.000 fold.

As for KTINGSGSPHSKAQFMCT, the “Fold Enrichment relative to AAV9, Muscle (NHP)” value worked out at 0.000 fold.

Regarding KTINGSGSPHSKAQNNDQ, the “Fold Enrichment relative to AAV9, Muscle (NHP)” value is given as 0.000 fold.

Take KTFNGGGSPHSKAQYQQT: the “Fold Enrichment relative to AAV9, Muscle (NHP)” value came to 0.000 fold.

As for KTIIKNGSPHSKAQNQQT, the “Fold Enrichment relative to AAV9, Muscle (NHP)” value turned out to be 0.000 fold.

KTDRSSGSPHSKAQNQQT: the “Fold Enrichment relative to AAV9, Muscle (NHP)” value turned out to be 0.000 fold.
